In patent US6953812B2, “Glucagon antagonists/inverse agonists” (Novo Nordisk, Inc., priority 2000, dated 2005) one finds IC50 data, which are given here for 17 molecules.

In general, IC50 refers to the concentration that inhibits the measured activity by half.

The target in assay [1] is T1, human glucagon receptor (Homo sapiens, UniProt P47871).
T1 construct: expressed in transfected cells; host or cells: BHK (baby hamster kidney) cells, membrane preparation
Briefly: Glucagon Binding Assay (II). Conditions: membranes of BHK cells transfected with human glucagon receptor, 125I-glucagon, SPA; read-out: Glu Bd Assay (II) IC50. As to the method:
Glucagon Binding Assay (II)
BHK (baby hamster kidney cell line) cells are transfected with the human glucagon receptor and a membrane preparation of the cells is prepared.
All steps in the membrane preparation are kept on ice or performed at 4° C. BHK cells are harvested and centrifuged. The pellet is resuspended in homogenisation buffer (25 mM HEPES, pH=7.4, 2.5 mM CaCl2, 1.0 mM MgCl2, 250 mg/L bacitracin, 0.1 mM Pefabloc), homogenised 2×10 sec using Polytron 10-35 homogenizer (Kinematica) and added the same amount of homogenisation buffer as used for resuspension. After centrifugation (15 min at 2000×g) the supernatant is transferred to cold centrifuge tubes and centrifuged for 45 min at 40.000×g. The pellet is resuspended in homogenisation buffer, homogenised 2×10 sec (Polytron) and additional homogenisation buffer is added. The suspension is centrifuged for 45 min at 40.000×g and the pellet is resuspended in resuspension buffer (25 mM HEPES, pH=7.4, 2.5 mM CaCl2, 1.0 mM MgCl2) and homogenised 2×10 sec. (Polytron). […] Stabilisation buffer (25 mM HEPES, pH=7.4, 2.5 mM CaCl2, 1.0 mM MgCl2, 1% bovine serum albumin, 500 mg/L bacitracin, 2.5 M sucrose) is added and the membrane preparation is stored at −80° C.
The glucagon binding assay is carried out in opti plates (Polystyrene Microplates, Packard). 50 μL assay buffer (25 mM HEPES, pH=7.5, 2.5 mM CaCl2, 1.0 mM MgCl2, 0.003% Tween-20, 0.005% bacitracin, 0.05% sodium azide) and 5 μL glucagon or test compound (in DMSO) are added to each well. […] Finally 50 μL WGA beads containing 1 mg beads are transferred to the well. The opti plates are incubated for 4 hours on a shaker and then settled for 8-48 hours. The opti plates are counted in a Topcounter. Non-specific binding is determined with 500 nM of glucagon.

For assay [2], the target named is T2, human GIP receptor (Homo sapiens, UniProt P48546).
T2 construct: expressed in transfected cells; host or cells: BHK (baby hamster kidney) cells, membrane preparation
T2 sequence (P48546 22-466): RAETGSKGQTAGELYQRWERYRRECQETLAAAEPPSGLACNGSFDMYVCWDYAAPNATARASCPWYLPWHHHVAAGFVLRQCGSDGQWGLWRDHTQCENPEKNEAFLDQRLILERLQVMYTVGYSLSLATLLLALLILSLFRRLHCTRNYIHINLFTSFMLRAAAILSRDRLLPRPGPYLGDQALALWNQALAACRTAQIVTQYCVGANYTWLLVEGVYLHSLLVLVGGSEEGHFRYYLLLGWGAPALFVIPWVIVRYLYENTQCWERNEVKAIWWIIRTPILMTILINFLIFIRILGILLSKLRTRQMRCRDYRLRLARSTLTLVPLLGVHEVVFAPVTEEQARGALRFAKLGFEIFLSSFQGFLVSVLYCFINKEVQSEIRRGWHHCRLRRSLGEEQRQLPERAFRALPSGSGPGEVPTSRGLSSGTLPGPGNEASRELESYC
The assay is described as follows: GIP Binding Assay. Conditions: membranes of BHK cells transfected with human GIP receptor, 125I-GIP, SPA; read-out: GIP Bd Assay IC50. As to the method: BHK (baby hamster kidney cell line) cells are transfected with the human GIP receptor and a membrane preparation of the cells is prepared.
All steps in the membrane preparation are kept on ice or performed at 4° C. BHK cells are harvested and centrifuged. The pellet is resuspended in homogenisation buffer (25 mM) HEPES, pH=7.4, 2.5 mM CaCl2, 1.0 mM MgCl2, 250 mg/L bacitracin, 0.1 mM Pefabloc), homogenised 2×10 sec using Polytron 10-35 homogenizer (Kinematica) and added the same amount of homogenisation buffer as used for resuspension. After centrifugation (15 min at 2000×g) the supernatant is transferred to cold centrifuge tubes and centrifuged for 45 min at 40.000×g. The pellet is resuspended in homogenisation buffer, homogenised 2×10 sec (Polytron) and additional homogenisation buffer is added. The suspension is centrifuged for 45 min at 40.000×g and the pellet is resuspended in resuspension buffer (25 mM HEPES, pH=7.4, 2.5 mM CaCl2, 1.0 mM MgCl2) and homogenised 2×10 sec. (Polytron). […] Stabilisation buffer (25 mM HEPES, pH=7.4, 2.5 mM CaCl2, 1.0 mM MgCl2, 1% bovine serum albumin, 500 mg/L bacitracin, 2.5 M sucrose) is added and the membrane preparation is stored at −80° C.
The GIP binding assay is carried out in opti plates (Polystyrene Microplates, Packard). 50 μL assay buffer (25 mM HEPES, pH=7.5, 2.5 mM CaCl2, 1.0 mM MgCl2, 0.003% Tween-20, 0.005% bacitracin, 0.05% sodium azide) and 5 μL GIP or test compound (in DMSO) are added to each well. […] Finally 50 μL WGA beads containing 1 mg beads are transferred to the well. The opti plates are incubated for 3.5 hours on a shaker and then settled for 8-48 hours. The opti plates are counted in a Top-counter. Non-specific binding is determined with 500 nM of GIP.

T1 sequence (P47871 26-477): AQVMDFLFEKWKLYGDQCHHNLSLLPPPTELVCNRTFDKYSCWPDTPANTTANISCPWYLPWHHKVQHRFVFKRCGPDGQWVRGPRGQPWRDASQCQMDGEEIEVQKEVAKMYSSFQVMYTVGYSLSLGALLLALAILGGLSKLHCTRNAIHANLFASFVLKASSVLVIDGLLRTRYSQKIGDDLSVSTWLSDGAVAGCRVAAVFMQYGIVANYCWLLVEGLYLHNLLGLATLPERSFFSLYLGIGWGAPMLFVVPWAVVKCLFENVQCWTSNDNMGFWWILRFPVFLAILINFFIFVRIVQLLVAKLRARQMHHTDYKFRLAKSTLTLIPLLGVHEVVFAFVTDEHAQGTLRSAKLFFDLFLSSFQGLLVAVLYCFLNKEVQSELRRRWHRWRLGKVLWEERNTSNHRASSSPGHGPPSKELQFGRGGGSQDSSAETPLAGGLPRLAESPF

Consider `O=C(NC[C@@H](O)C(=O)O)c1ccc(CN(C(=O)Nc2cc(C(F)(F)F)cc(C(F)(F)F)c2)c2ccc(C3CCCCC3)cc2)cc1` [Example 2, (R)-3-{4-[3-(3,5-Bis(trifluoromethyl)phenyl)-1-(4-cyclohexylphenyl)ureidomethyl]benzoylamino}-2-hydroxypropionic acid], for which the IC50 was 12 nM in assay [1] and 269 nM in assay [2].
For `CC(C)(C)c1ccc(N(Cc2ccc(C(=O)NCC(O)C(=O)O)cc2)C(=O)Nc2ccc(OC(F)(F)F)cc2)cc1` (racemic) [Example 16, (RS)-3-{4-[1-(4-tert-Butylphenyl)-3-(4-trifluoromethoxyphenyl)ureidomethyl]benzoylamino}-2-hydroxypropionic acid], in that order: 61 nM and 205 nM.
On to `O=C(NC[C@H](O)C(=O)O)c1ccc(CN(C(=O)Nc2cc(Cl)cc(Cl)c2)c2ccc(C3=CCCCC3)cc2)cc1` [Example 18, (S)-3-{4-[1-(4-Cyclohex-1-enylphenyl)-3-(3,5-dichlorophenyl)ureidomethyl]benzoylamino}-2-hydroxypropionic acid], for which the IC50 in assay [1] was 177 nM; in assay [2], above 1500 nM.
The like results for `O=C(NC[C@@H](O)C(=O)O)c1ccc(CN(C(=O)Nc2ccccc2)c2ccc(C3=CCCCC3)cc2)cc1` [Example 21, (R)-3-{4-[1-(4-Cyclohex-1-enylphenyl)-3-phenylureidomethyl]benzoylamino}-2-hydroxypropionic acid] were, in that order, 293 nM and 1260 nM.
Consider `O=C(NC[C@@H](O)C(=O)O)c1ccc(CN(C(=O)CCc2cccc([N+](=O)[O-])c2)c2ccc(C3CCCCC3)cc2)cc1` [Example 73, (R)-3-[4-({(4-Cyclohexylphenyl)-[3-(3-nitrophenyl)propionyl]amino}methyl)benzoylamino]-2-hydroxypropionic acid], for which the results for the IC50 in assay [1] and in assay [2] were 680 nM and above 3000 nM, respectively.
Regarding `O=C(NC[C@@H](O)C(=O)O)c1ccc(CN(C(=O)Nc2cc(F)cc(C(F)(F)F)c2)c2ccc(C3CCCCC3)cc2)cc1` [Example 6, (R)-3-{4-[1-(4-Cyclohexylphenyl)-3-(3-fluoro-5-trifluoromethylphenyl)ureidomethyl]benzoylamino}-2-hydroxypropionic acid], the IC50 in assay [1] amounted to 10 nM; in assay [2], 294 nM.
Regarding `N#Cc1cc(NC(=O)N(Cc2ccc(C(=O)NC[C@@H](O)C(=O)O)cc2)c2ccc(C3CCCCC3)cc2)cc(C(F)(F)F)c1` [Example 8, (R)-3-{4-[3-(3-Cyano-5-trifluoromethylphenyl)-1-(4-cyclohexylphenyl)ureidomethyl]benzoylamino}-2-hydroxypropionic acid], the IC50 in assay [1] is 14 nM; in assay [2], 316 nM.
The like results for `CC(C)(C)C1CCC(N(Cc2ccc(C(=O)NC[C@@H](O)C(=O)O)cc2)C(=O)Cc2cc(F)cc(C(F)(F)F)c2)CC1` (stereo partly drawn) [Example 57, (R)-3-[4-({(4-tert-Butylcyclohexyl)-[2-(3-fluoro-5-trifluoromethylphenyl)acetyl]amino}methyl)benzoylamino]-2-hydroxypropionic acid] were, in that order, 439 nM and above 3000 nM.
As for `CC(C)c1ccc(NC(=O)N(Cc2ccc(C(=O)NC[C@@H](O)C(=O)O)cc2)c2ccc(C3CCCCC3)cc2)cc1` [Example 51, (R)-3-{4-[1-(4-Cyclohexylphenyl)-3-(4-isopropylphenyl)ureidomethyl]benzoylamino}-2-hydroxypropionic acid], the IC50 came out at 88 nM in assay [1] and 831 nM in assay [2].
Turning to `O=C(NC[C@@H](O)C(=O)O)c1ccc(CN(C(=O)Nc2ccc(Cl)c(Cl)c2)c2ccc(C3=CCCCC3)cc2)cc1` [Example 52, (R)-3-{4-[1-(4-Cyclohex-1-enylphenyl)-3-(3,4-dichlorophenyl)ureidomethyl]benzoylamino}-2-hydroxypropionic acid], the IC50 came out at 47 nM in assay [1] and 341 nM in assay [2].
The like results for `O=C(NC[C@@H](O)C(=O)O)c1ccc(CN(C(=O)NCc2ccccc2)c2ccc(C3=CCCCC3)cc2)cc1` [Example 22, (R)-3-{4-[3-Benzyl-1-(4-cyclohex-1-enylphenyl)ureidomethyl]benzoylamino}-2-hydroxypropionic acid] were, in that order, 354 nM and 2270 nM.
For `O=C(NC[C@@H](O)C(=O)O)c1ccc(CN(C(=O)Cc2ccc(OC(F)(F)F)cc2)c2ccc(C3CCCCC3)cc2)cc1` [Example 63, (R)-3-[4-({(4-Cyclohexylphenyl)-[(4-trifluoromethoxyphenyl)acetyl]amino}methyl)benzoylamino]-2-hydroxypropionic acid], in that order: 336 nM and above 3000 nM.
For `O=C(NCC(F)C(=O)O)c1ccc(CN(C(=O)Nc2cc(Cl)cc(Cl)c2)c2ccc(C3=CCCCC3)cc2)cc1` (racemic) [Example 23, (RS)-3-{4-[1-(4-Cyclohex-1-enylphenyl)3-(3,5-dichlorophenyl)ureidomethyl]benzoylamino}-2-fluoropropionic acid], in that order: 40 nM and 516 nM.
Regarding `O=C(NC[C@@H](O)C(=O)O)c1ccc(CN(C(=O)Cc2cccc(OC(F)(F)F)c2)c2ccc(C3CCCCC3)cc2)cc1` [Example 64, (R)-3-[4-({(4-Cyclohexylphenyl)-[(3-trifluoromethoxyphenyl)acetyl]amino}methyl)benzoylamino]-2-hydroxypropionic acid], the IC50 in assay [1] was 514 nM; in assay [2], above 3000 nM.
For `O=C(NC[C@@H](O)C(=O)O)c1ccc(CN(C(=O)Nc2cccc(Cl)c2)c2ccc(C3=CCCCC3)cc2)cc1` [Example 20, (R)-3-{4-[3-(3-Chlorophenyl)-1-(4-cyclohex-1-enylphenyl)ureidomethyl]benzoylamino}-2-hydroxypropionic acid], in that order: 52 nM and 693 nM.
Consider `O=C(NC[C@@H](O)C(=O)O)c1ccc(CN(CC(c2ccccc2)c2ccccc2)C(=O)Cc2ccc(OC(F)(F)F)cc2)cc1` [Example 60, (R)-3-[4-({(2,2-Diphenylethyl)-[2-(4-trifluoromethoxyphenyl)acetyl]amino}methyl)benzoylamino]-2-hydroxypropionic acid], for which the IC50 in assay [1] is 1020 nM; in assay [2], above 3000 nM.
On to `O=C(NC[C@@H](O)C(=O)O)c1ccc(CN(C(=O)Cc2cccc(C(F)(F)F)c2)c2ccc(C3CCCCC3)cc2)cc1` [Example 67, (R)-3-[4-({(4-Cyclohexylphenyl)-[(3-trifluoromethylphenyl)acetyl]amino}methyl)benzoylamino]-2-hydroxypropionic acid], for which the figures for the IC50 in assay [1] and in assay [2] were 520 nM and above 3000 nM, respectively.
